How the values were obtained:
[1] = biological target: T1, SMARCA4 (Homo sapiens, UniProt P51532); assay: SMARCA4 HiBiT degradation assay in HeLa cells; type: cell-based; details: 18 hours, highest concentration 10 μM
T1 construct: SMARCA4-HiBiT knock-in Hela monoclonal cell (CS3023226); host or cells: HeLa monoclonal cells with heterozygous HiBiT knock-in at the endogenous SMARCA4 locus
How it was run: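 HeLa monoclonal cells with HiBiT knocked into SMARCA4 were seeded at 2500 cells/well, dosed with compound and incubated 18 hours at 37° C. HiBiT signal reported remaining SMARCA4 protein, and values came from curve fitting.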

[2] = biological target: T2, SMARCA2 (Homo sapiens, UniProt P51531); assay: SMARCA2 HiBiT degradation assay in HeLa cells; type: cell-based; details: 18 hours, highest concentration 10 μM
T2 construct: SMARCA2-HiBiT knock-in Hela monoclonal cell (CS302366); host or cells: HeLa monoclonal cells with heterozygous HiBiT knock-in at the endogenous SMARCA2 locus
How it was run: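 HeLa cells carrying a heterozygous C-terminal HiBiT knock-in on SMARCA2 were seeded at 2500 cells/well. They were treated with 3-fold dilution series, top concentration 10 μM, for 18 h at 37 °C. Remaining SMARCA2-HiBiT was measured by Nano-Glo HiBiT lytic luminescence after 30-60 min at RT, followed by curve fitting.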

[3] = test system: SMARCA4 mutated cancer cells; details: Vangamudi et al. Cancer Res 2015; cited from earlier work

T1 sequence (P51532 whole entry): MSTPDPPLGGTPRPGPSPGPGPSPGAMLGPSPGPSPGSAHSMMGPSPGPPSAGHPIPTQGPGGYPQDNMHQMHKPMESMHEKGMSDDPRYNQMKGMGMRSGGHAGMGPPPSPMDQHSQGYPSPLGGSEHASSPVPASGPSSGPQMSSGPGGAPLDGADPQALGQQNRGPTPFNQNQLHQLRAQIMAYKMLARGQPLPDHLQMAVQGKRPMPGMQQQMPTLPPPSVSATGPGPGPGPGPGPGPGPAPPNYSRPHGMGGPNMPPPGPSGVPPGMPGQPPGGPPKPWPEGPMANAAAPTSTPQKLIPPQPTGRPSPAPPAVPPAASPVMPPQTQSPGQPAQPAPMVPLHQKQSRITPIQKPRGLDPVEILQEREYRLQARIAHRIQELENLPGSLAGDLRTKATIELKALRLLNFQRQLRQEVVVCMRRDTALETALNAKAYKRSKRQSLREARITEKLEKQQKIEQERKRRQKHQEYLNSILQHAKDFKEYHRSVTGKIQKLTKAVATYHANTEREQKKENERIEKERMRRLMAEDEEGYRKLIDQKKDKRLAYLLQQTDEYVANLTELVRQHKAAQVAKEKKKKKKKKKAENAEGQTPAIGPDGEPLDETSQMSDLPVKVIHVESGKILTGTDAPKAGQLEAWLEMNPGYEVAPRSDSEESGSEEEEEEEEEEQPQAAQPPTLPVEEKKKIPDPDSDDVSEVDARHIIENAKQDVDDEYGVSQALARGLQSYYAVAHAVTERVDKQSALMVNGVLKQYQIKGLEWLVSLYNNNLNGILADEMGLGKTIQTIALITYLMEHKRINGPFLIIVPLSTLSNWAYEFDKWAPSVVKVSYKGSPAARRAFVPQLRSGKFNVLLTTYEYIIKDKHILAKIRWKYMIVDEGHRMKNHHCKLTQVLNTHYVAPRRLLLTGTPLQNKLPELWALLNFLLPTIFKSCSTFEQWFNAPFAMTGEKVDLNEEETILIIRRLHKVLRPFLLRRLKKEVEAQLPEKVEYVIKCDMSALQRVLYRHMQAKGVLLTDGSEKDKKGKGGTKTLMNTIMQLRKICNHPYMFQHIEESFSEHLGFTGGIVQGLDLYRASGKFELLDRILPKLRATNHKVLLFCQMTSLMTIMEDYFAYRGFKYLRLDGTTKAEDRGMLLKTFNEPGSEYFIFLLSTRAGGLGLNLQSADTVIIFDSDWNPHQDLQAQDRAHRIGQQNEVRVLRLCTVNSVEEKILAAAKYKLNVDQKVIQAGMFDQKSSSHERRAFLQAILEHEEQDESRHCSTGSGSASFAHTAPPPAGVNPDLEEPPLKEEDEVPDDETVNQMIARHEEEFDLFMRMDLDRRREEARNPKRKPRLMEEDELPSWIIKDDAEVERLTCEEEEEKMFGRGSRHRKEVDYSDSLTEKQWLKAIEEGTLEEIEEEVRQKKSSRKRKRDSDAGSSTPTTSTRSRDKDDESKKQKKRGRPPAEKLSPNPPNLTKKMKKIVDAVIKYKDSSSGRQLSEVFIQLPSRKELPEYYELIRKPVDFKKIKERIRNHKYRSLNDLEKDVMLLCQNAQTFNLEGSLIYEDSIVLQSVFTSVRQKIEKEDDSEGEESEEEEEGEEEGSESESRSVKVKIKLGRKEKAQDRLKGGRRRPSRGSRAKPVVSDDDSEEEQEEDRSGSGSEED
T2 sequence (P51531 whole entry): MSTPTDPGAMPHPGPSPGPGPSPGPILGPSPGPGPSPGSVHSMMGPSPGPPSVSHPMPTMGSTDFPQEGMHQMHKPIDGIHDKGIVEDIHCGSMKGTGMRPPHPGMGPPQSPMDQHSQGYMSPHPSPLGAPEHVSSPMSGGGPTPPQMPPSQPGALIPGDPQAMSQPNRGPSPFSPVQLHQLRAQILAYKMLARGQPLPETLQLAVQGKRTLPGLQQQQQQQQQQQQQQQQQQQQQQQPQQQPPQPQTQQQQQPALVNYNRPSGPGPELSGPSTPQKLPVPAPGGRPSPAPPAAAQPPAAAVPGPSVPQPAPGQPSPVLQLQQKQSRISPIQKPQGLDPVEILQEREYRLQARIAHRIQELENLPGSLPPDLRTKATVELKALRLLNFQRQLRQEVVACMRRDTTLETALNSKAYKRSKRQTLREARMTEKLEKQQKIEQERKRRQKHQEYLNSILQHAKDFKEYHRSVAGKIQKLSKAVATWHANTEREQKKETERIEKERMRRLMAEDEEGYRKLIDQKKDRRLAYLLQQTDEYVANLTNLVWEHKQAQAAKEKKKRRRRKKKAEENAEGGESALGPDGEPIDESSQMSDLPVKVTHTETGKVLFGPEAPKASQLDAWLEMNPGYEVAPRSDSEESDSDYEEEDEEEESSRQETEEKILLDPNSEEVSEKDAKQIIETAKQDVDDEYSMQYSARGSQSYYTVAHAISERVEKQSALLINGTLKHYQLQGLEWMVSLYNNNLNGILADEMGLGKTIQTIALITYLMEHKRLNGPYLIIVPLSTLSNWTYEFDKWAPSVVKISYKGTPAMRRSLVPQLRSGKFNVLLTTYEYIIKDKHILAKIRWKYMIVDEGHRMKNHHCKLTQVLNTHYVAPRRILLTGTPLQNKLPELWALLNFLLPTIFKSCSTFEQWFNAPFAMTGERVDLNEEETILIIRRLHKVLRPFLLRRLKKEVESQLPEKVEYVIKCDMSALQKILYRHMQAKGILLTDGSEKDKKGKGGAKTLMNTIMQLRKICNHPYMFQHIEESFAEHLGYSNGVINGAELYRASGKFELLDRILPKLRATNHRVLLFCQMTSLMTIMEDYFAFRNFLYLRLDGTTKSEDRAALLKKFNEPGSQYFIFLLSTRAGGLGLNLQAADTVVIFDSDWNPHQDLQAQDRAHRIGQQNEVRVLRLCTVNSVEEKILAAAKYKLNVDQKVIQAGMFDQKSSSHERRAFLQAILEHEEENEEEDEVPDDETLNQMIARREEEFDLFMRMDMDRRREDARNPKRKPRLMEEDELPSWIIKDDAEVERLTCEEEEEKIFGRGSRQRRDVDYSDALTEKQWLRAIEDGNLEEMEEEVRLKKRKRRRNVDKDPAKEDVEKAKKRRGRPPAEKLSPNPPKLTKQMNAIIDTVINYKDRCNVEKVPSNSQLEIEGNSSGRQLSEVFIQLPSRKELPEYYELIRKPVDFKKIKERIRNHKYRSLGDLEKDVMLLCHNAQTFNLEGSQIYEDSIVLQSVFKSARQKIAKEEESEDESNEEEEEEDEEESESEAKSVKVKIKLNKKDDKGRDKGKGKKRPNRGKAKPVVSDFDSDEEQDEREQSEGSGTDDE

SMILES	DC50 [1] [nM]	Dmax [1] [%]	DC50 [2] [nM]	Dmax [2] [%]	effects on cell proliferation inhibition [3]
CC[C@@]12CNc3nnc(-c4cccc(F)c4O)cc3N1C[C@H](Oc1cnc(CN3CCC(c4ccc5c(c4)C(=O)N([C@H]4CCC(=O)NC4=O)C5)CC3)c(F)c1)C2 [Example 101, (S)-3-(6-(1-((5-(((6aR,8R)-6a-ethyl-2-(3-fluoro-2-hydroxyphenyl)-5,6,6a,7,8,9-hexahydropyrrolo[1′,2′:4,5]pyrazino[2,3-c]pyridazin-8-yl)oxy)-3-fluoropyridin-2-yl)methyl)piperidin-4-yl)-1-oxoisoindolin-2-yl)piperidine-2,6-dione]	100 to 1000	< 50	< 100	> 75	
CC[C@@]12CNc3nnc(-c4cccc(F)c4O)cc3N1C[C@H](Oc1nc(C)c(CN3CCC(c4ccc5c(c4)C(=O)N([C@H]4CCC(=O)NC4=O)C5)CC3)c(C)n1)C2 [Example 102, (S)-3-(6-(1-((2-(((6aR,8R)-6a-ethyl-2-(3-fluoro-2-hydroxyphenyl)-5,6,6a,7,8,9-hexahydropyrrolo[1′,2′:4,5]pyrazino[2,3-c]pyridazin-8-yl)oxy)-4,6-dimethylpyrimidin-5-yl)methyl)piperidin-4-yl)-1-oxoisoindolin-2-yl)piperidine-2,6-dione]	> 1000	< 50	< 100	> 75	
CC[C@@]12CNc3nnc(-c4cccc(F)c4O)cc3N1C[C@H](Oc1cc(C)c(CN3CCC(c4ccc5c(c4)C(=O)N(C4CCC(=O)NC4=O)C5)CC3)cn1)C2 (stereo partly drawn) [Example 106, 3-(6-(1-((6-(((6aR,8R)-6a-ethyl-2-(3-fluoro-2-hydroxyphenyl)-5,6,6a,7,8,9-hexahydropyrrolo[1′,2′:4,5]pyrazino[2,3-c]pyridazin-8-yl)oxy)-4-methylpyridin-3-yl)methyl)piperidin-4-yl)-1-oxoisoindolin-2-yl)piperidine-2,6-dione]	100 to 1000	< 50	< 100	> 75	
O=C(/C=C/N1C[C@H]2C[C@@H]1CN2c1ccccn1)c1ccccc1O [PFI-3]					none to minor effects

The next lines start with results.

DC50 [1] [nM]	Dmax [1] [%]	DC50 [2] [nM]	Dmax [2] [%]	SMILES	effects on cell proliferation inhibition [3]
< 100	50 to 75	< 100	> 75	CC[C@]12CNc3nnc(-c4cccc(Cl)c4O)cc3N1C[C@H](Oc1cnc(CN3CCC(c4ccc5c(c4)C(=O)N([C@H]4CCC(=O)NC4=O)C5)CC3)c(Cl)c1)C2 [Example 99, (S)-3-(6-(1-((3-chloro-5-(((6aS,8R)-2-(3-chloro-2-hydroxyphenyl)-6a-ethyl-5,6,6a,7,8,9-hexahydropyrrolo[1′,2′:4,5]pyrazino[2,3-c]pyridazin-8-yl)oxy)pyridin-2-yl)methyl)piperidin-4-yl)-1-oxoisoindolin-2-yl)piperidine-2,6-dione]	
100 to 1000	< 50	< 100	> 75	CC[C@@]12CNc3nnc(-c4cccc(Cl)c4O)cc3N1C[C@H](Oc1cc(C)c(CN3CCC(c4ccc5c(c4)C(=O)N([C@H]4CCC(=O)NC4=O)C5)CC3)cn1)C2 [Example 100, (S)-3-(6-(1-((6-(((6aR,8R)-2-(3-chloro-2-hydroxyphenyl)-6a-ethyl-5,6,6a,7,8,9-hexahydropyrrolo[1′,2′:4,5]pyrazino[2,3-c]pyridazin-8-yl)oxy)-4-methylpyridin-3-yl)methyl)piperidin-4-yl)-1-oxoisoindolin-2-yl)piperidine-2,6-dione]	
< 100	50 to 75	< 100	> 75	CC[C@]12CNc3nnc(-c4cccc(F)c4O)cc3N1C[C@H](Oc1cnc(CN3CCC(c4ccc5c(c4)C(=O)N([C@H]4CCC(=O)NC4=O)C5)CC3)cn1)C2 [Example 103, (S)-3-(6-(1-((5-(((6aS,8R)-6a-ethyl-2-(3-fluoro-2-hydroxyphenyl)-5,6,6a,7,8,9-hexahydropyrrolo[1′,2′:4,5]pyrazino[2,3-c]pyridazin-8-yl)oxy)pyrazin-2-yl)methyl)piperidin-4-yl)-1-oxoisoindolin-2-yl)piperidine-2,6-dione]	
< 100	50 to 75	< 100	> 75	CC[C@]12CNc3nnc(-c4cccc(F)c4O)cc3N1C[C@H](Oc1cnc(CN3CCC(c4ccc5c(c4)C(=O)N([C@H]4CCC(=O)NC4=O)C5)CC3)c(C)c1)C2 [Example 104, (S)-3-(6-(1-((5-(((6aS,8R)-6a-ethyl-2-(3-fluoro-2-hydroxyphenyl)-5,6,6a,7,8,9-hexahydropyrrolo[1′,2′:4,5]pyrazino[2,3-c]pyridazin-8-yl)oxy)-3-methylpyridin-2-yl)methyl)piperidin-4-yl)-1-oxoisoindolin-2-yl)piperidine-2,6-dione]	
100 to 1000	< 50	< 100	> 75	CC[C@@]12CNc3nnc(-c4cccc(F)c4O)cc3N1C[C@H](Oc1ncc(CN3CCC(c4ccc5c(c4)C(=O)N([C@H]4CCC(=O)NC4=O)C5)CC3)c(C)n1)C2 [Example 105, (S)-3-(6-(1-((2-(((6aR,8R)-6a-ethyl-2-(3-fluoro-2-hydroxyphenyl)-5,6,6a, 7,8,9-hexahydropyrrolo[1′,2′:4,5]pyrazino[2,3-c]pyridazin-8-yl)oxy)-4-methylpyrimidin-5-yl)methyl)piperidin-4-yl)-1-oxoisoindolin-2-yl)piperidine-2,6-dione]	
